Values of other authors as cited in patent US20200281206A1, “SEXUAL ATTRACTION PHEROMONE OF TRIBOLIUM CASTANEUM AND INSECT CONTROL DEVICE” (YPF TECNOLOGÍA S.A., priority 2019, published 2020).

Tested on: Tribolium castaneum
Details: prior-art finding

For `CCC(C)CCCC(C)CCC=O` (stereo not shown) [4,8-dimethyldecanal], the “sex of insects attracted” value is listed as “attracts both male and female insects”.
